# Source: patent US6355799B1, “Substituted benzene compounds, process for their preparation, and herbicidal and defoliant compositions containing them” (ISK Americas Incorporated, priority 1997, dated 2002)
# What was measured:
# Type in all cases: in vivo
# [1] = tested on: velvetleaf (Abutilon theophrasti, ABUTH); experiment: Pre-emerge test, greenhouse herbicide activity screening; conditions: rated 14 days after application, 0 = no damage, 100 = complete death
# In short: (§1)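 Sandy loam pots; pre-emerge: sown 1 d pre-spray, surface-watered after, then bottom-watered. Post-emerge: sown 8–21 d before, 2–3 leaf stage, + 0.25% v/v NIS, bottom-watered. Acetone, 187 l/ha track spray, 15–1000 g ai/ha. 0–100 injury score, day 14.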
# [2] = tested on: johnsongrass (Sorghum halepense, SORHA); experiment: as above; conditions: rated 14 days after application, 0 = no damage, 100 = complete death
# In short: as §1
# [3] = tested on: green foxtail (Setaria viridis, SETVI); experiment: as above; conditions: rated 14 days after application, 0 = no damage, 100 = complete death
# In short: as §1
# [4] = tested on: lambsquarters (Chenopodium album, CHEAL); experiment: as above; conditions: rated 14 days after application, 0 = no damage, 100 = complete death
# In short: as §1
# [5] = tested on: large crabgrass (Digitaria sanguinalis, DIGSA); experiment: as above; conditions: rated 14 days after application, 0 = no damage, 100 = complete death
# In short: as §1
# [6] = tested on: ivyleaf morningglory (Ipomoea hederacea, IPOHE); experiment: as above; conditions: rated 14 days after application, 0 = no damage, 100 = complete death
# In short: as §1
# [7] = tested on: sicklepod (Cassia obtusifolia, CASOB); experiment: as above; conditions: rated 14 days after application, 0 = no damage, 100 = complete death
# In short: as §1
# [8] = tested on: barnyardgrass (Echinochloa crus-galli, ECHCG); experiment: as above; conditions: rated 14 days after application, 0 = no damage, 100 = complete death
# In short: as §1
# [9] = tested on: upland rice (Oryza sp., var. Tebonnet, RICE); experiment: Post-emerge test, crop safety; conditions: post-emerge, 14 days after application, rating scale 0-100
# In short: as §1
# [10] = tested on: field corn (Zea mays L., var. Dekalb 535, CORN); experiment: Post-emerge test, crop safety; conditions: post-emerge, 14 days after application, rating scale 0-100
# In short: as §1
# [11] = tested on: redroot pigweed (Amaranthus retroflexus, AMARE); experiment: Pre-emerge test, greenhouse herbicide activity screening; conditions: rated 14 days after application, 0 = no damage, 100 = complete death
# In short: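 Herbicidal damage is scored 0 (none) to 100 (complete plant death) two weeks after a simulated field spray. Rates span 15–1000 g ai/ha, delivered in acetone at 187 l/ha. For post-emergence treatments, plants have 2–3 leaves and the spray carries 0.25% v/v non-ionic surfactant.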
# [12] = tested on: upland rice (Oryza sp., var. Tebonnet, RICE); experiment: Pre-emerge test, crop safety; conditions: rated 14 days after application, 0 = no damage, 100 = complete death
# In short: (§2)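 Visual ratings on a 0-100 scale (0 no damage, 100 all plants dead) were taken at 14 days after treatment. Rates of 15-1000 g ai/ha in acetone, 187 l/ha, were sprayed onto soil one day after planting (pre-emerge) or onto 2-3 leaf plants with 0.25% v/v surfactant (post-emerge).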
# [13] = tested on: field corn (Zea mays L., var. Dekalb 535, CORN); experiment: Pre-emerge test, crop safety; conditions: rated 14 days after application, 0 = no damage, 100 = complete death
# In short: as §2
# [14] = tested on: velvetleaf (Abutilon theophrasti, ABUTH); experiment: Post-emerge test, greenhouse herbicide activity screening; conditions: post-emerge, 14 days after application, rating scale 0-100
# In short: (§3)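 Each test used a mechanized track sprayer delivering 187 l/ha of acetone solution at 15–1000 g ai/ha. Post-emerge foliage at 2–3 leaves was treated with added 0.25% v/v non-ionic surfactant and bottom-watered only. Injury was assessed on day 14, where 100 means total kill.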
# [15] = tested on: johnsongrass (Sorghum halepense, SORHA); experiment: as above; conditions: post-emerge, 14 days after application, rating scale 0-100
# In short: as §3
# [16] = tested on: green foxtail (Setaria viridis, SETVI); experiment: as above; conditions: post-emerge, 14 days after application, rating scale 0-100
# In short: as §3
# [17] = tested on: lambsquarters (Chenopodium album, CHEAL); experiment: as above; conditions: post-emerge, 14 days after application, rating scale 0-100
# In short: as §3
# [18] = tested on: large crabgrass (Digitaria sanguinalis, DIGSA); experiment: as above; conditions: post-emerge, 14 days after application, rating scale 0-100
# In short: as §3
# [19] = tested on: redroot pigweed (Amaranthus retroflexus, AMARE); experiment: as above; conditions: post-emerge, 14 days after application, rating scale 0-100
# In short: as §3
# [20] = tested on: ivyleaf morningglory (Ipomoea hederacea, IPOHE); experiment: as above; conditions: post-emerge, 14 days after application, rating scale 0-100
# In short: as §3
# [21] = tested on: sicklepod (Cassia obtusifolia, CASOB); experiment: as above; conditions: post-emerge, 14 days after application, rating scale 0-100
# In short: as §3
# [22] = tested on: barnyardgrass (Echinochloa crus-galli, ECHCG); experiment: as above; conditions: post-emerge, 14 days after application, rating scale 0-100
# In short: as §3
structure (smiles),measurement,setting,value
COc1c(Cl)cc(F)c(-n2c(=O)cc(C(F)(F)F)n(C)c2=O)c1NC(=O)CCc1ccccc1 [2-86],"Pre-emerge Herbicidal Activity, phytotoxicity rating (0-100), ABUTH",[1]; 63 g ai/ha,100
same,"Pre-emerge Herbicidal Activity, phytotoxicity rating (0-100), ABUTH",[1]; 250 g ai/ha,100
same,"Pre-emerge Herbicidal Activity, phytotoxicity rating (0-100), SORHA",[2]; 63 g ai/ha,99
same,"Pre-emerge Herbicidal Activity, phytotoxicity rating (0-100), SORHA",[2]; 250 g ai/ha,100
same,"Pre-emerge Herbicidal Activity, phytotoxicity rating (0-100), SETVI",[3]; 63 g ai/ha,100
same,"Pre-emerge Herbicidal Activity, phytotoxicity rating (0-100), SETVI",[3]; 250 g ai/ha,100
same,"Pre-emerge Herbicidal Activity, phytotoxicity rating (0-100), CHEAL",[4]; 63 g ai/ha,100
same,"Pre-emerge Herbicidal Activity, phytotoxicity rating (0-100), CHEAL",[4]; 250 g ai/ha,100
same,"Pre-emerge Herbicidal Activity, phytotoxicity rating (0-100), DIGSA",[5]; 63 g ai/ha,100
same,"Pre-emerge Herbicidal Activity, phytotoxicity rating (0-100), DIGSA",[5]; 250 g ai/ha,100
same,"Pre-emerge Herbicidal Activity, phytotoxicity rating (0-100), IPOHE",[6]; 63 g ai/ha,90
same,"Pre-emerge Herbicidal Activity, phytotoxicity rating (0-100), IPOHE",[6]; 250 g ai/ha,100
same,"Pre-emerge Herbicidal Activity, phytotoxicity rating (0-100), CASOB",[7]; 63 g ai/ha,100
same,"Pre-emerge Herbicidal Activity, phytotoxicity rating (0-100), CASOB",[7]; 250 g ai/ha,95
same,"Pre-emerge Herbicidal Activity, phytotoxicity rating (0-100), ECHCG",[8]; 63 g ai/ha,95
same,"Pre-emerge Herbicidal Activity, phytotoxicity rating (0-100), ECHCG",[8]; 250 g ai/ha,100
same,phytotoxicity rating RICE,[9]; 63 g ai/ha,80
same,phytotoxicity rating RICE,[9]; 250 g ai/ha,100
same,phytotoxicity rating CORN,[10]; 63 g ai/ha,90
same,phytotoxicity rating CORN,[10]; 250 g ai/ha,100
same,"Pre-emerge Herbicidal Activity, phytotoxicity rating (0-100), AMARE",[11]; 63 g ai/ha,100
same,"Pre-emerge Herbicidal Activity, phytotoxicity rating (0-100), AMARE",[11]; 250 g ai/ha,100
same,"Pre-emerge phytotoxicity rating (0-100), crop damage, RICE",[12]; 63 g ai/ha,90
same,"Pre-emerge phytotoxicity rating (0-100), crop damage, RICE",[12]; 250 g ai/ha,99
same,"Pre-emerge phytotoxicity rating (0-100), crop damage, CORN",[13]; 63 g ai/ha,95
same,"Pre-emerge phytotoxicity rating (0-100), crop damage, CORN",[13]; 250 g ai/ha,99
same,phytotoxicity rating ABUTH,[14]; 63 g ai/ha,100
same,phytotoxicity rating ABUTH,[14]; 250 g ai/ha,100
same,phytotoxicity rating SORHA,[15]; 63 g ai/ha,70
same,phytotoxicity rating SORHA,[15]; 250 g ai/ha,100
same,phytotoxicity rating SETVI,[16]; 63 g ai/ha,90
same,phytotoxicity rating SETVI,[16]; 250 g ai/ha,100
same,phytotoxicity rating CHEAL,[17]; 63 g ai/ha,100
same,phytotoxicity rating CHEAL,[17]; 250 g ai/ha,100
same,phytotoxicity rating DIGSA,[18]; 63 g ai/ha,30
same,phytotoxicity rating DIGSA,[18]; 250 g ai/ha,95
same,phytotoxicity rating AMARE,[19]; 63 g ai/ha,100
same,phytotoxicity rating AMARE,[19]; 250 g ai/ha,100
same,phytotoxicity rating IPOHE,[20]; 63 g ai/ha,100
same,phytotoxicity rating IPOHE,[20]; 250 g ai/ha,100
same,phytotoxicity rating CASOB,[21]; 63 g ai/ha,100
same,phytotoxicity rating CASOB,[21]; 250 g ai/ha,100
same,phytotoxicity rating ECHCG,[22]; 63 g ai/ha,90
same,phytotoxicity rating ECHCG,[22]; 250 g ai/ha,100
